Common to all, as to assay type: in vivo
Data set [1] has as its system Diabrotica balteata (rootworm larvae). As to the kind of experiment: insecticidal mortality test, residual, filter paper/maize seed. The settings on record: 48 h, read-out: grading of mortality, DB. The method, then: (§1) The activity of the Product was determined using a variety of insect pests. The Product was used in the form of liquid preparations containing 500, 250 or 100 parts per million (ppm) by weight of the Product. The preparations were made by dissolving the Product in acetone and diluting the solutions with water containing 0.01% by weight of a wetting agent sold under the trade name "LlSSAPOL" NX until the liquid preparations contained the required concentration of the Product. "Lissapol" is a Registered Trade Mark.
(§2) The test procedure adopted with regard to each pest was basically the same and comprised supporting a number of the pests on a medium which was usually a host plant or a foodstuff on which the pests feed, and treating either or both the pests and the medium with the preparations. The mortality of the pests was then assessed at periods usually varying from one to three days after the treatment.
(§3) The results of the tests are given in Table III for each of the Products, at the rate in parts per million given in the second column as a grading of mortality designated as A, B or C wherein A indicates 80-100% mortality, B indicates 50-79% mortality and C indicates less than 50% mortality.
(§4) In Table 111 the pest organism used is designated by a letter code and the pests species, the support medium or food, and the type and duration of test is given in Table II.

Data set [2] relates to Blattella germanica (cockroach nymphs). Briefly: insecticidal mortality test, residual, plastic pot. The settings on record: 72 h, read-out: grading of mortality, BG. The method, then:
as §1, §2, §3, §4

Data set [3] relates to Spodoptera exigua (lesser army worm - larvae). Briefly: insecticidal mortality test, residual, cotton leaf. Conditions: 48 h, read-out: grading of mortality, SP. As for the experimental part:
as §1, §2, §3, §4

For data set [4], the system named is Heliothis virescens (tobacco budworm - larvae). Briefly: insecticidal mortality test, residual, cotton leaf. Conditions: 48 h, 100 ppm, residual, cotton leaf, test duration of 2 days (footnote +), read-out: grading of mortality, HV. The method, then: as §1, §2, §3, §4
The test system of data set [5] is Blattella germanica (adult males). As to the kind of experiment: Blattella germanica knockdown test. Conditions: for % KNOCKDOWN OBSERVED 15 min / % KNOCKDOWN OBSERVED 20 min / pest or weed control at 250 ppm: 250 ppm in kerosene, 1 cm3 sprayed onto 10 adult males; for % KNOCKDOWN OBSERVED 15 min / % KNOCKDOWN OBSERVED 20 min / mortality at 250 ppm / % MORTALITY 48 hrs / pest or weed control at 250 ppm: tests 1 and 2 are repeats; for KT₅₀ / KT₉₀ / mortality at 250 ppm / % MORTALITY 48 hrs: 250 ppm spray; for KT₅₀: time taken to knockdown 50% of test insects; for KT₅₀ / KT₉₀: Tetramethrin: mean of 3 assessments; for KT₉₀: time taken to knockdown 90% of test insects; for mortality at 250 ppm / pest or weed control at 250 ppm: Blattella germanica; for mortality at 250 ppm: 48 h, read-out: % MORTALITY 48 hrs; for mortality at 250 ppm / % MORTALITY 48 hrs: insects held at 25°C and 65% relative humidity for 48 hours; for % MORTALITY 48 hrs: 2880 min; for pest or weed control at 250 ppm: topical, Tetramethrin: mean of 27 observations. The method, then: The test compound was dissolved in acetone (2 cm³) and the solution diluted to a concentration of 250 ppm with kerosene. 1 cm³ Of this preparation was sprayed onto 10 Blattella germanica (adult males) held in a netted plastic pot in a Burkhard potter Tower. Assessment of knockdown was performed at intervals of 5 minutes up to a total of 20 minutes. On removal from the Burkhard Potter Tower, the insects were held at 25°C and 65% relative humidity for 48 hours, and an assessment of mortality performed. Each test was repeated.
In some tests, additional knockdown assessment was performed at intervals of 1, 2, 3 and 4 minutes, and KT₅₀ and KT₉₀ values determined (the time taken, in minutes, to knockdown 50% and 90% respectively of test insects).

The subject of the next data set is Myzus persicae (aphids). As to the kind of experiment: insecticidal mortality test, contact, Chinese Cabbage leaf. The settings on record: 72 h, read-out: grading of mortality, MP. As for the experimental part: as §1, §2, §3, §4
The test system of data set [6] is Nephotettix cincticeps (green leaf hopper - nymphs). Briefly: insecticidal mortality test, contact, rice plant. The settings on record: 48 h, 100 ppm, contact, rice plant, test duration of 2 days (footnote +), read-out: grading of mortality, NC. As for the experimental part:
as §1, §2, §3, §4

Data set [7] concerns Musca domestica (houseflies - adults). As to the kind of experiment: insecticidal mortality test, contact, cotton wool/sugar. Conditions: 72 h, read-out: grading of mortality, MD. As for the experimental part:
as §1, §2, §3, §4

In data set [8] the test system is Tetranychus urticae (spider mites - adult). As to the kind of experiment: insecticidal mortality test, contact, French bean leaf. The settings on record: Tetranychus urticae, 72 h, read-out: grading of mortality, Tua, 100 ppm, 3 days. The method, then: as §1, §2, §3, §4
[9] abbreviates: 5 min, 5 min, read-out: % KNOCKDOWN OBSERVED 5 min.
Where [10] appears, read: 10 min, 10 min, read-out: % KNOCKDOWN OBSERVED 10 min.

“And” between values parts separate entries of the source, which are not always exact repeats. Equal values may be shown once. Read-outs that look alike come from different tables or passages of the source.

In general, mortality refers to the share of the test organisms that died.

`CC1(C)C(/C=C(\F)C(F)(F)F)C1C(=O)OCc1c(F)c(F)c(CN=[N+]=[N-])c(F)c1F` (mixture of isomers) [Product XXVIII, 4-(azidomethyl)-2,3,5,6-tetrafluorobenzyl (1RS, cis/trans)-3-(Z-2,3,3,3-tetrafluoroprop-1-en-1-yl)2,2-dimethylcyclopropanecarboxylate]: the mortality at 100 ppm (in data set [1]; in data set [2]; in data set [3]; in data set [4]; with Myzus persicae (aphids); in data set [6]) was 80 to 100% each time. Also, the mortality at 100 ppm in data set [7] is 80 to 100%; in data set [8], less than 50%. The “% KNOCKDOWN OBSERVED 15 min” value in [5] came out at 70%. In addition, the “% KNOCKDOWN OBSERVED 20 min” value in [5] is given as 100%. The KT₅₀ in data set [5] was 6.4 min and 12.6 min. In addition, the KT₉₀ in data set [5] is 9.3 min and 18.3 min. The mortality at 250 ppm in data set [5] is 100%.
For the compound `CC1(C)C(C=C(Cl)C(F)(F)F)C1C(=O)OCc1c(F)c(F)c(CCC#N)c(F)c1F` (racemic) [Product XXI, 4-(2-cyanoethyl)-2,3,5,6-tetrafluorobenzyl (1RS, cis)-3-(Z-2-chloro-3,3,3-trifluoroprop-1-en-1-yl)-2,2-dimethylcyclopropanecarboxylate], the mortality at 100 ppm in data set [1] is less than 50%; in [2], less than 50%; in [3] it was less than 50%; in [4], 80 to 100%; in the data set with Myzus persicae (aphids) it was 80 to 100%; in [6] it was 80 to 100%. In addition, the mortality at 100 ppm in [7] and in data set [8] was less than 50% in each case. Besides, in data set [5], the “% MORTALITY 48 hrs” value was 60% and 100%. In data set [5], the KT₅₀ was 4.2 min and 3.6 min. Besides, the KT₉₀ in data set [5] was 8.8 min and 8.2 min. Besides, the pest or weed control at 250 ppm was found to be 60% in data set [5] (setting [9]) and 100% in data set [5] (setting [10]).
For the compound `CC(C)=NOCc1c(F)c(F)c(COC(=O)C2C(C=C(Cl)C(F)(F)F)C2(C)C)c(F)c1F` (racemic) [Product XXII, 4-[(prop-2-ylideneamino)oxymethyl]-2,3,5,6-tetrafluorobenzyl (1RS, cis)-3-(Z-2-chloro-3,3,3-trifluoroprop-1-en-1-yl-2,2-dimethylcyclopropanecarboxylate], the mortality at 100 ppm in [1] was 80 to 100%; in data set [2], less than 50%; in data set [3] it was 80 to 100%; in [4], 80 to 100%; in the data set on Myzus persicae (aphids) it was 80 to 100%; in [6], 80 to 100%. Further, the mortality at 100 ppm in [7] and in data set [8] was 80 to 100% in each case. Further, the KT₅₀ in [5] was 3.6 min and 2.5 min. Moreover, the KT₉₀ in [5] was 8.3 min and 4.5 min. For the same compound, the mortality at 250 ppm in data set [5] was 100%. The pest or weed control at 250 ppm in [5] (setting [10]) was 100%.
For the compound `CC(C)=NOCc1c(F)c(F)c(COC(=O)[C@@H]2[C@@H](/C=C(\Cl)C(F)(F)F)C2(C)C)c(F)c1F` (racemic) [Product XXIII, 4-[(prop-2-ylidenamino)oxymethyl]-2,3,5,6-tetrafluorobenzyl (1RS, trans)-3-(Z-2-chloro-3,3,3-trifluoroprop-1-en-1-yl)-2,2-dimethylcyclopropanecarboxylate], the mortality at 100 ppm in data set [1] is 80 to 100%; in data set [2], less than 50%; in data set [3], 80 to 100%; in [4] it was less than 50%; with Myzus persicae (aphids), 80 to 100%; in data set [6] it was 80 to 100%. Also, the values for the mortality at 100 ppm in data set [7] and in [8] were less than 50% and 80 to 100%, respectively. In [5], the “% KNOCKDOWN OBSERVED 15 min” value was determined as 10%. The “% KNOCKDOWN OBSERVED 20 min” value in data set [5] was 10%. Further, in data set [5], the KT₉₀ was 9.3 min. In data set [5], the mortality at 250 ppm came to 100%.
Take `C#CCN(C)Cc1c(F)c(F)c(COC(=O)[C@@H]2[C@H](/C=C(\Cl)C(F)(F)F)C2(C)C)c(F)c1F` (racemic) [Product XXIV, 4-[(N-(prop-2-yn-1-yl)-N-methyl)aminomethyl]-2,3,5-6-tetrafluorobenzyl (1RS, cis)-3-(Z-2-chloro-3,3,3-trifluoroprop-1-en-1-yl)-2,2-dimethylcyclopropanecarboxylate]: the mortality at 100 ppm in data set [1] lay in the range of 80 to 100%; in data set [2], 50 to 79%; in data set [3] it was 80 to 100%; in data set [4], 80 to 100%; with Myzus persicae (aphids), 80 to 100%; in data set [6] it was 80 to 100%. Further, the mortality at 100 ppm is 80 to 100% in data set [7] and 50 to 79% in [8]. Also, the “% MORTALITY 48 hrs” value in data set [5] was 100% and 70%. The KT₅₀ in [5] is 4.2 min and 5.0 min. Moreover, in [5], the KT₉₀ was 8.8 min and 9.0 min. The values for the pest or weed control at 250 ppm in data set [5] (setting [9]) and in [5] (setting [10]) were 60% and 100%, respectively.
On to `C#CCSCc1c(F)c(F)c(COC(=O)[C@@H]2[C@H](/C=C(\Cl)C(F)(F)F)C2(C)C)c(F)c1F` (racemic) [Product XXV, 4-[(prop-2-yn-1-yl)thiomethyl]-2,3,5,6-tetra fluorobenzyl (1RS, cis)-3-(Z-2-chloro-3,3,3-trifluoroprop-1-en-1-yl)-2,2-dimethylcyclopropanecarboxylate], for which the mortality at 100 ppm (in data set [1]; in [2]; in [3]; in data set [4]; in the data set on Myzus persicae (aphids); in data set [6]) was 80 to 100% throughout. Moreover, the mortality at 100 ppm in [7] and in data set [8] was 80 to 100% in each case. The KT₅₀ in [5] is 2.5 min and 3.6 min. The KT₉₀ in data set [5] is 4.5 min and 8.3 min. Besides, the pest or weed control at 250 ppm in data set [5] (setting [10]) came out at 100%.
For `CC(=O)SCc1c(F)c(F)c(COC(=O)[C@@H]2[C@H](/C=C(\Cl)C(F)(F)F)C2(C)C)c(F)c1F` (racemic) [Product XXVI, 4-(acetylthiomethyl)-2,3,5,6-tetrafluorobenzyl (1RS, cis)-3-(Z-2-chloro-3,3,3-trifluoroprop-1-en-1-yl)-2,2-dimethylcyclopropanecarboxylate], the mortality at 100 ppm (in [1]; in [2]; in data set [3]; in data set [4]; with Myzus persicae (aphids); in data set [6]) was 80 to 100% in each case. Further, the mortality at 100 ppm in data set [7] and in data set [8] was 80 to 100% throughout. Besides, the “% KNOCKDOWN OBSERVED 15 min” value in [5] worked out at 60%. For the same compound, the “% KNOCKDOWN OBSERVED 20 min” value in data set [5] is 100%. Further, the mortality at 250 ppm in [5] amounted to 100%.
